“Also recorded” adds a separate entry of the source.
How the values were obtained:
[1] = tested on: bone marrow derived cells (BMDCs)
Source text: Six-week old C57BL/6 female mice (Jackson Laboratoiries, Bar Harbor, Mass.) were used as bone marrow donors. The mice were euthanized by a ketamine hydrochloride (Bioniche, Belleville, ON) and xylazine (Rompum, Bayer's Inc, Toronto, ON) injections. Total bone marrow cells were collected from femurs and tibia, pooled, and washed twice with phosphate-buffered saline (PBS, Invitrogen corp., Carlsbad, Calif.) contained 2% fetal bovine serum (FBS, Hyclone Laboratories, Logan, Utah). All the bone marrow derived cells (BMDCs) were plated in 6-wells culture plates (Corning, Corning, N.Y.) precoated with rat fibronectin (Calbiochem, San Diego, Calif.), in Hematopoietic Growth Medium (HPGM Lonza, Walkersvelle, Md.) contained 2% fetal bovine serum (FBS, Hyclone Laboratories) and antibiotics (1% penicillin-streptomycin, Invitrogen corp.). Cells were grown in presence of 10 ng/mL platelet derived growth factor (PDGF, Peprotech. Inc, Rocky Hill, N.J.) and 10 ng/mL […] (EGF, Peprotech. Inc.) during the first 7 days. The experimental protocol was approved by the animal care committee of the Montreal Heart Institute.
BMDCs were cultured and isolated as described above. At day 7, complete culture medium was replaced by an incomplete culture medium: HPGM medium, 2% fetal bovine serum ([…] EGF and PDGF), and 1% antibiotics (penicillin and streptomycin) with or without E2 (10^−10 M to 10^−6 M) (Sigma) and/or rapamycin (10^−11M to 10^−6 M) (LC Laboratories, Woburn, Mass.) or paclitaxel (10^−11M to 10^−6 M) (LC laboratories) for another 7 days. In the case of combined treatment, the E2 was added 24 h prior the addition of the drug. First medium change was performed four days after plating and each following three days for a total of 14 days in culture.
After this treatment, the cells were removed from the 6-well culture plate using a 0.02% solution of (ethylenedinitrilo) tetraacetic acid (EDTA, Sigma) and diluted 1:1 in Trypan blue (Invitrogen corp.) before cell count with a hemacytometer (Hausser Bright-line). Total cells number, white cells and blue stained cells were counted. The proliferation rate was defined as the total number of cells over the number of cells at day 0 of the initiation of the treatment. The survival rate was defined as the number of white cells among the total cell population. The mortality rate was defined as the percentage of blue cells (dead cells) among the total cell population. […] The combination assay was achieved by a 24-hour pretreatment of BMDCs with different concentrations of E2 (10^−8 to 10^−10 M) and the drug was added at its IC50 concentration for a one week treatment. After this time, cells were processed as described above.

[2] = tested on: bone marrow derived cells (BMDCs); assay: Necrosis and apoptosis levels (annexin V / propidium iodide flow cytometry); format: cell-based, mouse (C57BL/6 female mice); conditions: for number of annexin V positive cells: drug at IC90 dose, 48 hrs
Experimental: After being cultured and isolated as described above, BMDCs were plated in 12-well culture plate. […] The cells were analyzed 24, 48 and 72 hours later after staining with FITC-conjugated annexin V (Alexis biochemical, San Diego, Calif.) and propidium iodide (PI, Sigma). Acquisition and analysis were performed on an Epics Altra cytometer as described in the section above “Analysis of the differentiation profile”.
In order to evaluate the effect of E2, paclitaxel or rapamycin on early apoptosis, late apoptosis and necrosis, BMDC were treated with either E2, paclitaxel or rapamycin and stained with annexin V and propodium iodine. Cells positive for annexin V only are considered in the early phases of apoptosis while cells positive for propodium iodine only are in necrosis. Cells which stained for both annexin V and propiodium iodine are in a more advanced apoptotic process (FIG. 6). The effect of E2 on the levels of apoptotic and necrotic cells in rapamycin or paclitaxel-treated cells was evaluated (FIG. 7)

[3] = tested on: bone marrow derived cells (BMDCs); assay: Differentiation profile of BMDCs by flow cytometry; format: cell-based, mouse (C57BL/6 female mice); conditions: for percentage of CD117+ cells: E2 alone (10^−9M) or in combination with paclitaxel (5×10^−9 M), one week; for total or sub-populations of CD44+ cells: one week treatment, paclitaxel 5×10^-9M, rapamycin 10^-10M, alone or in combination
Experimental: (§1) BMDCs were cultured and isolated as described above.
BMDCs were plated and grown during 7 days before treatment (stimulation). Rapamycin (LC Laboratories) or paclitaxel (LC laboratories) were added for a one week treatment at IC50 concentration. Afterward, cells were washed twice in PBS and non specific binding sites were blocked with 5% normal rat serum (Jackson Immunoresearch Laboratories Inc.). To evaluate the differentiation profile of the BMDCs, quadruple stainings were performed as follow: 1) for the HSC allophycocyanin (APC, Caltag Laboratories, Carlsbad, Calif.) conjugated monoclonal rat-anti-mouse CD117, fluorescein isothiocyanate (FITC, BD pharmingen, San Jose, Calif.) conjugated monoclonal rat anti-mouse CD31 (platelet endothelial cell adhesion molecules-1, PECAM), biotin conjugated monoclonal rat anti-mouse CD34 (Bio, BD pharmingen), growth factor receptor-2 (VEGFR2); and 2) for the stromal cells: APC (Abcam Inc., Cambridge Mass.) conjugated monoclonal rat anti-mouse CD90, FITC conjugated (BD pharmingen) monoclonal rat anti-mouse CD44 (hyaluronic acid receptor), PE conjugated monoclonal rat anti-mouse vascular cell adhesion molecule (V-CAM/CD106, Abcam Inc.), biotin (Abcam Inc.) conjugated monoclonal rat anti-mouse CD105 (Endoglin). Corresponding isotype antibodies were used as negative controls; monoclonal rat anti-mouse IgG2a-APC (Abcam Inc.), monoclonal rat anti-mouse IgG2a-FITC, (Abcam Inc.), monoclonal rat anti-mouse IgG2a-PE (BD pharmingen), monoclonal rat anti-mouse IgG2a-Bio (Abcam Inc.). To analyze the biotin conjugated antibody, a secondary antibody streptavidine-ECD (Beckman coulter, Fullerton, Calif.) was used. Data acquisition was performed using 1×10^6 events per sample. Of these events, only low-to-medium FSC (forward scattered channel) and SSC (side scattered channel) singlets were gated for analysis of BM subpopulations. In all cases, gated singlets represented 80 to 90% of acquired events. The acquisition and analysis were performed on an Epics Altra cytometer from Beckman using the EXPO™ 32 system ADC software (Beckman Coulter, Fullerton, Calif.).

[4] = tested on: bone marrow derived cells (BMDCs); assay: Proliferation assay of BMDCs (cell count with trypan blue); format: cell-based, mouse (C57BL/6 female mice); conditions: for IC50: Mus musculus, BMDC, 168 h, one week treatment, cellular count, read-out: IC50 for cell growth
Experimental: as §1
After this time, cells were processed as described above.

ERβ = assay: Western blot, ERβ expression in BMDCs / mBMPC; format: cell-based, mouse
Experimental: (§2) Membranes were stripped with Re-Blot Plus™ (International Chemicon) and total protein expression was determined with a goat polyclonal β-actin (1:1000 dilution, Santa Cruz Biotechnology Inc.).

[5] = tested on: ERα and ERβ expressed by BMDCs; assay: Western blot, ratio of ERα expression over ERβ in BMDCs; format: cell-based, mouse (C57BL/6 female mice); conditions: 24-hour stimulation, at 10^−8 and 10^−7M
Experimental: as §2

ERα = assay: Western blot, ERα expression in BMDCs / mBMPC; conditions: paclitaxel-treated cells, 24 h, 10^−8 and 10^−7M

## C[C@]12CC[C@@H]3c4ccc(O)cc4CC[C@H]3[C@@H]1CC[C@@H]2O [E2, 17-beta-estradiol]
[1]
  dead cells (percentage of dead cells): not affected
  reduction of mortality rate: 7-11%
[1]; 10^−10M E2 added to rapamycin or paclitaxel at IC50, one week, compared to cells treated with the drug only
  improvement of survival rate: about 30%
[2]; 1 week incubation, alone or in combination with E2, flow cytometry
  apoptotic and necrotic cells rates: no appreciable differences
[2]; E2 combined with rapamycin IC50, 48 hrs, compared to rapamycin IC50 alone
  percentage of annexin V positive cells: tended to reduce
[2]; E2 combined with rapamycin or paclitaxel at IC90, 48 hrs stimulations
  blocking of the drug-induced (IC90) increase of annexin V positive cells: could not be blocked
[3]
  percentage of CD117+ cells: tended to increase; also recorded: increases
  total or sub-populations of CD44+ cells: no effect
[3]; listed as Estradiol
  percentage of CD117+ cells: increase
[3]; in the presence of E2 (24 h pre-treatment), paclitaxel 5×10^−9 M
  level (%) of CD117+ cells in paclitaxel-treated BMDCs: higher level
[3]; two weeks in culture including one week with various doses of E2
  number of CD14+ cells: does not influence
[4]; one-week treatment with a dose range of E2, compared to cells maintained in HPGM
  number of living cells: not affected
ERβ; mBMPC, 24-hour stimulation with various doses of E2 (not shown)
  regulation of ERβ expression: No regulation

## CC(=O)O[C@H]1C(=O)[C@@]2(C)[C@H]([C@H](OC(=O)c3ccccc3)[C@]3(O)C[C@H](OC(=O)[C@H](O)[C@@H](NC(=O)c4ccccc4)c4ccccc4)C(C)=C1C3(C)C)[C@]1(OC(C)=O)CO[C@@H]1C[C@@H]2O [paclitaxel]
[1]
  mortality rate, drug alone: not observed
  toxicity on bone marrow derived cells: toxic
[5]
  drop in ERα/ERβ ratio: up to 50%
ERα
  ERα expression: decrease
[2]
  number of annexin V positive cells: increased significantly
[3]
  total or sub-populations of CD44+ cells: no effect
[3]; one-week treatment at IC50 concentration
  differentiation profile of CD117+ or CD44+: does not affect
[4]; BMDCs, one week, very low doses
  effect on proliferation at very low doses: proliferative effect
[4]; BMDCs
  IC50: 5 nM
ERβ; paclitaxel-treated cells, 24 h, 10^−8 and 10^−7M
  ERβ expression: induction

## CO[C@H]1C[C@@H]2CC[C@@H](C)[C@@](O)(O2)C(=O)C(=O)N2CCCC[C@H]2C(=O)O[C@H]([C@H](C)C[C@@H]2CC[C@@H](O)[C@H](OC)C2)CC(=O)[C@H](C)/C=C(\C)[C@@H](O)[C@@H](OC)C(=O)[C@H](C)C[C@H](C)/C=C/C=C/C=C/1C [rapamycin]
[1]
  mortality rate, drug alone: significantly increased
  toxicity on bone marrow derived cells: toxic
[2]
  number of annexin V positive cells: increased significantly
[3]
  total or sub-populations of CD44+ cells: no effect
[4]; BMDCs
  IC50: 0.1 nM

From patent US20100247602A1, “METHOD OF REDUCING THE EFFECTS OF CYTOSTATIC DRUGS ON BONE MARROW DERIVED CELLS, AND METHODS OF SCREENING” (priority 2007, published 2010)
